Test results as given in publication PMC4805166, “Synthetic Cyclolipopeptides Selective against Microbial, Plant and Animal Cell Targets by Incorporation of D-Amino Acids or Histidine” (PLoS ONE, 2016).
Like-named read-outs stand apart in the source and are kept apart here. Where a SMILES comes first, the peptide text is derived from it. Side-chain parts run from the residue outwards. [ ]: non-standard residue; d: D form. The star is where a group is joined. Pentanoyl(4-Me) = CC(C)CCC(=O)*; Hexanoyl = CCCCCC(=O)*; Butyryl = CCCC(=O)*

How the values were obtained:
[1] = system: Pseudomonas syringae pv. syringae EPS94; assay type: cell-based; conditions: 48 h
In short: (§1)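 Peptide dilutions (stocks 500–31.1 μM) mixed 1:10 with 10^8 CFU/mL bacterial suspension in TSB. Incubated 25 °C, OD600 read hourly for 48 h, triplicates, repeated twice. MIC: lowest concentration with no growth at end.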

[2] = system: Xanthomonas axonopodis pv. vesicatoria 2133–2; assay type: cell-based; conditions: TSB, 25°C, 48 h, OD 600 nm; tested at 3.1, 6.2, 12.5, 25, 50 μM; three replicates, experiment repeated twice; MIC = lowest concentration with no growth
In short: as §1

[3] = system: Erwinia amylovora PMV6076; assay: MIC, in vitro growth inhibition; assay type: cell-based; conditions: TSB, 25°C, 48 h, OD 600 nm; tested at 3.1, 6.2, 12.5, 25, 50 μM; three replicates, experiment repeated twice; MIC = lowest concentration with no growth
In short: as §1

[4] = system: Fusarium oxysporum f. sp. lycopersici FOL 3 race 2; assay: MIC, antifungal growth inhibition; assay type: cell-based
In short: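 Microconidia are grown on PDA at 25 °C and adjusted to 10^4 conidia/mL. Peptide stocks of 500, 250, 125, 62.5 and 31.1 µM (stock, not final) are mixed with conidia in double-concentrated PDB with 0.003% chloramphenicol, in triplicate, and incubated at 20 °C. OD600 is read every 2 h for seven days, and MIC is the lowest concentration with no growth at the end.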

[5] = system: E. amylovora, P. syringae pv. syringae, X. axonopodis pv. vesicatoria and F. oxysporum; assay type: cell-based; conditions: for MIC values over the pathogens tested: span of MIC values over the four pathogens; for Antimicrobial activity, in words: authors' overall judgement over the pathogens tested; for MIC against three pathogens: three of the four pathogens tested
Experimental: The following plant pathogenic bacterial strains were used: Erwinia amylovora PMV6076 (Institut National de la Recherche Agronomique, Angers, France), Pseudomonas syringae pv. syringae EPS94 (Institut de Tecnologia Agroalimentària, Universitat de Girona, Spain) and Xanthomonas axonopodis pv. vesicatoria 2133–2 (Instituto Valenciano de Investigaciones Agrarias, Valencia, Spain). All bacteria were stored in Luria Bertani (LB) broth supplemented with glycerol (20%) and maintained at -80°C. Bacteria were scrapped from LB agar after growing for 24–48 h at 25°C. The cell material was suspended in sterile water to obtain a suspension of 10^8 CFU mL^-1.
Fusarium oxysporum f. sp. lycopersici FOL 3 race 2 (ATCC 201829, American Type Culture Collection) was used as fungal pathogen. The strain was cultured on potato dextrose agar (PDA) plates (Difco) and microconidia were obtained after growth at 25°C. The concentration of conidia was determined using a hemacytometer and adjusted to 10^4 conidia mL^-1.
Lyophilized peptides were solubilized in sterile Milli-Q water to a final concentration of 1 mM and filter sterilized through a 0.22-μm pore filter. For minimum inhibitory concentration (MIC) assessment, dilutions of the compounds were made to obtain a stock concentration of […]. For antibacterial activity twenty microlitres of each dilution were mixed in a microtiter plate well with 20 μL of the corresponding suspension of the bacterial indicator, 160 μL of Trypticase Soy Broth (TSB) (BioMèrieux, France) to a total volume of 200 μL. For antifungal activity 20 μL of each stock solution were mixed in a microtiter plate well with 80 μL of the corresponding suspension of the fungal pathogen and 100 μL of double concentrated PDB to a total volume of 200 μL containing 0.003% w/v of choramphenicol.
Three replicates for each strain, compound and concentration were used. Microbial growth was determined by optical density measurement at 600 nm (Bioscreen C, Labsystem, Helsinki, Finland). For antibacterial activity microplates were incubated at 25°C with 20 sec shaking before hourly absorbance measurement for 48 h. For antifungal activity microplates were incubated at 20°C with 1 min shaking before absorbance measurement that were done every two hours during seven days. The experiment was repeated twice. The MIC was taken as the lowest compound concentration with no growth at the end of the experiment.

[6] = system: erythrocyte suspensions of horse blood; conditions: horse erythrocytes 5% vol/vol, TRIS buffer pH 7.2, 1 h at 37°C, absorbance 540 nm, relative to melittin 100 μM, ± confidence interval (α = 0.05); for Hemolysis (%) 150 µM: 150 µM peptide; for Hemolysis (%) 250 µM: 250 µM peptide;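 for all read-outs here: Read-out is hemoglobin release into the supernatant, with a buffer-only blank subtracted as the 0% baseline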
Experimental: Blood was centrifuged at 6000g for 5 min, washed three times with TRIS buffer (10 mM TRIS, 150 mM NaCl, pH 7.2) and diluted.
Compounds were solubilized in TRIS buffer and mixed with horse erythrocytes and the final concentrations tested were 250 and 150 μM. The mixture was incubated under continuous shaking for 1 h at 37°C. Then, the tubes were centrifuged at 3500g for 10 min, 80 μL aliquots of the supernatant transferred to 100-well microplates (Bioscreen), diluted with 80 μL water, and the absorbance measured at 540 nm (Bioscreen). Complete hemolysis was obtained by the addition of melittin at 100 μM (Sigma-Aldrich Corporation, Madrid, Spain). The percentage of hemolysis (H) was calculated using the equation: H = 100×[(Op−Ob)/(Om−Ob)], where Op was the density for a given compound concentration, Ob for the buffer, and Om for the melittin positive control.

[7] = PDB with 0.003% chloramphenicol, 20°C, seven days, OD 600 nm, tested at 3.1, 6.2, 12.5, 25, 50 μM, three replicates, repeated twice

| Molecule | MIC Pss [1] | MIC Xav [2] | MIC Ea [3] | MIC Fo [4, 7] | MIC values over the pathogens tested [5] | Hemolysis (%) 150 µM [6] | MIC Fo [4] | Antimicrobial activity, in words [5] | Hemolysis (%) 250 µM [6] | MIC against three pathogens [5] | MIC Pss ([1]; TSB, 25°C, OD 600 nm, tested at 3.1, 6.2, 12.5, 25, 50 μM, three replicates, experiment repeated twice, MIC = lowest concentration with no growth) |
| --- | --- | --- | --- | --- | --- | --- | --- | --- | --- | --- | --- |
| CCCCCC(=O)NCCCC[C@@H]1NC(=O)[C@H](CCC(N)=O)NC(=O)[C@H](CC(C)C)NC(=O)[C@H](CCCCN)NC(=O)[C@H](CCCCN)NC(=O)[C@H](Cc2ccccc2)NC(=O)[C@H](CCCCN)NC(=O)[C@H](CCCCN)NC(=O)[C@H](CC(C)C)NC(=O)[C@H](CCCCN)NC1=O [BPC590] (cyclo(FKKLQK(Hexanoyl)KLKK)) | 6.2 to 12.5 µM | 3.1 to 6.2 µM | 6.2 to 12.5 µM | 12.5 to 25 µM | 3.1 to 25 µM | 100 ± 9% |  |  |  |  |  |
| CC(C)C[C@@H]1NC(=O)[C@H](CCCCN)NC(=O)[C@H](CCCCN)NC(=O)[C@H](CCC(N)=O)NC(=O)[C@H](CC(C)C)NC(=O)[C@H](CCCCN)NC(=O)[C@H](CCCCN)NC(=O)[C@H](Cc2ccccc2)NC(=O)[C@H](CCCCN)NC(=O)[C@H](CCCCN)NC1=O [BPC194] (cyclo(FKKLQKKLKK)) | 3.1 to 6.2 µM | 3.1 to 6.2 µM | 6.2 to 12.5 µM | <3.1 µM |  | 4 ± 1% | < 3.1 µM | high antimicrobial activity |  |  |  |
| CC(C)CCC(=O)NCCCC[C@H]1NC(=O)[C@H](CCCCN)NC(=O)[C@H](CC(C)C)NC(=O)[C@H](CCCCN)NC(=O)[C@H](CCCCN)NC(=O)[C@H](CCC(N)=O)NC(=O)[C@H](CC(C)C)NC(=O)[C@H](CCCCN)NC(=O)[C@H](CCCCN)NC(=O)[C@@H](Cc2ccccc2)NC1=O [BPC634, c(KKLKk(CO-isoC5H11)fKKLQ)] (cyclo(KKLK[dK](Pentanoyl(4-Me))[dF]KKLQ)) | 12.5 to 25 µM | 25 to 50 µM | >50 µM | 6.2 to 12.5 µM |  | 7 ± 1% |  | low active | 17 ± 8% |  |  |
| CCCCCC(=O)NCCCC[C@@H]1NC(=O)[C@H](CCCCN)NC(=O)[C@H](CC(C)C)NC(=O)[C@H](CCCCN)NC(=O)[C@H](CCCCN)NC(=O)[C@H](CCC(N)=O)NC(=O)[C@H](CC(C)C)NC(=O)[C@H](CCCCN)NC(=O)[C@H](CCCCN)NC(=O)[C@H](Cc2ccccc2)NC1=O [BPC528, c(KKLKK(CO-nC5H11)FKKLQ)] (cyclo(FKKLQKKLKK(Hexanoyl))) | 6.2 to 12.5 µM | 3.1 to 6.2 µM | 12.5 to 25 µM | 6.2 to 12.5 µM | 3.1 to 25 µM | 98 ± 7% |  |  |  | < 12.5 µM |  |
| CCCCCC(=O)N[C@@H](CCCCN)C(=O)N[C@@H](CC(C)C)C(=O)NCCCC[C@@H]1NC(=O)[C@H](CCCCN)NC(=O)[C@H](CC(C)C)NC(=O)[C@H](CCCCN)NC(=O)[C@H](CCCCN)NC(=O)[C@H](CCC(N)=O)NC(=O)[C@H](CC(C)C)NC(=O)[C@H](CCCCN)NC(=O)[C@H](CCCCN)NC(=O)[C@H](Cc2ccccc2)NC1=O [BPC596, c(KKLKK(LK-CO-nC5H11)FKKLQ)] (cyclo(FKKLQKKLKK([Leu-Lys-Hexanoyl]))) | 6.2 to 12.5 µM | <3.1 µM | 12.5 to 25 µM | 12.5 to 25 µM |  | 93 ± 5% |  | important antimicrobial activity | 100 ± 11% |  |  |
| CCCCCC(=O)NCCCC[C@@H]1NC(=O)[C@H](CCCCN)NC(=O)[C@H](CCC(N)=O)NC(=O)[C@H](CC(C)C)NC(=O)[C@H](CCCCN)NC(=O)[C@H](CCCCN)NC(=O)[C@H](Cc2ccccc2)NC(=O)[C@H](CCCCN)NC(=O)[C@H](CCCCN)NC(=O)[C@H](CC(C)C)NC1=O [BPC588] (cyclo(FKKLQKK(Hexanoyl)LKK)) | 6.2 to 12.5 µM | 3.1 to 6.2 µM | 12.5 to 25 µM | 6.2 to 12.5 µM | 3.1 to 25 µM | 95 ± 4% |  |  |  |  |  |
| CC(C)CCC(=O)NCCCC[C@@H]1NC(=O)[C@H](CCCCN)NC(=O)[C@H](CC(C)C)NC(=O)[C@H](CCCCN)NC(=O)[C@H](CCCCN)NC(=O)[C@H](CCC(N)=O)NC(=O)[C@H](CC(C)C)NC(=O)[C@H](CCCCN)NC(=O)[C@H](CCCCN)NC(=O)[C@H](Cc2ccccc2)NC1=O [BPC504, c(KKLKK(CO-isoC5H11)FKKLQ)] (cyclo(FKKLQKKLKK(Pentanoyl(4-Me)))) | 6.2 to 12.5 µM | 3.1 to 6.2 µM | 12.5 to 25 µM | 3.1 to 6.2 µM |  | 89 ± 2% |  |  |  | < 12.5 µM |  |
| c(KKLKK(CO-C8H17)FKKLQ) [BPC594] |  | 3.1 to 6.2 µM | 25 to 50 µM | 6.2 to 12.5 µM |  |  |  |  |  | < 12.5 µM | 6.2 to 12.5 µM |
| CCCC(=O)NCCCC[C@@H]1NC(=O)[C@H](CCCCN)NC(=O)[C@H](CCC(N)=O)NC(=O)[C@H](CC(C)C)NC(=O)[C@H](CCCCN)NC(=O)[C@H](CCCCN)NC(=O)[C@H](Cc2ccccc2)NC(=O)[C@H](CCCCN)NC(=O)[C@H](CCCCN)NC(=O)[C@H](CC(C)C)NC1=O [BPC708] (cyclo(FKKLQKK(Butyryl)LKK)) | 12.5 to 25 µM | 6.2 to 12.5 µM | 25 to 50 µM | 3.1 to 6.2 µM |  | 2 ± 0.5% |  | active | 3 ± 1% |  |  |
| CCCC(=O)NCCCC[C@@H]1NC(=O)[C@H](CCC(N)=O)NC(=O)[C@H](CC(C)C)NC(=O)[C@H](CCCCN)NC(=O)[C@H](CCCCN)NC(=O)[C@H](Cc2ccccc2)NC(=O)[C@H](CCCCN)NC(=O)[C@H](CCCCN)NC(=O)[C@H](CC(C)C)NC(=O)[C@H](CCCCN)NC1=O [BPC710] (cyclo(FKKLQK(Butyryl)KLKK)) | 12.5 to 25 µM | 3.1 to 6.2 µM | 25 to 50 µM | <3.1 µM |  | 7 ± 1% |  |  |  |  |  |
| CCCC(=O)N[C@@H](CCCCN)C(=O)N[C@@H](CC(C)C)C(=O)NCCCC[C@@H]1NC(=O)[C@H](CCCCN)NC(=O)[C@H](CC(C)C)NC(=O)[C@H](CCCCN)NC(=O)[C@H](CCCCN)NC(=O)[C@H](CCC(N)=O)NC(=O)[C@H](CC(C)C)NC(=O)[C@H](CCCCN)NC(=O)[C@H](CCCCN)NC(=O)[C@@H](Cc2ccccc2)NC1=O [BPC726, c(KKLKK(LK-CO-C3H7)fKKLQ)] (cyclo(KKLKK([Leu-Lys-Butyryl])[dF]KKLQ)) | 12.5 to 25 µM | 6.2 to 12.5 µM | 25 to 50 µM | 3.1 to 6.2 µM |  | 0 ± 1% |  |  | 4 ± 2% |  |  |
| CCCC(=O)N[C@@H](CCCCN)C(=O)N[C@@H](CC(C)C)C(=O)NCCCC[C@H]1NC(=O)[C@H](CCCCN)NC(=O)[C@H](CC(C)C)NC(=O)[C@H](CCCCN)NC(=O)[C@H](CCCCN)NC(=O)[C@H](CCC(N)=O)NC(=O)[C@H](CC(C)C)NC(=O)[C@H](CCCCN)NC(=O)[C@H](CCCCN)NC(=O)[C@H](Cc2ccccc2)NC1=O [BPC724, c(KKLKk(LK-CO-C3H7)FKKLQ)] (cyclo(FKKLQKKLK[dK]([Leu-Lys-Butyryl]))) | 12.5 to 25 µM | 6.2 to 12.5 µM | 25 to 50 µM | <3.1 µM |  | 3 ± 2% |  |  | 3 ± 0.5% |  |  |
